Measured values: ChEMBL document CHEMBL5614385, “A peptide-salinomycin conjugate with a bystander effect reduces the stemness characteristics of ovarian cancer cells and enhances drug sensitivity” (Eur J Med Chem, 2024)
Calls of active or inactive are those of the source. The rule behind the calls is not given here. Non-standard residues stand in square brackets, D forms with d. Residues, ends and D or L forms follow the SMILES beside them. *: point of attachment. X1 = CC[C@@H](C(=O)O)C1CC[C@H](C)C([C@@H](C)[C@H](O)[C@H](C)C(=O)[C@H](CC)C2O[C@]3(C=C[C@@H](NC(=O)CCS*)[C@]4(CC[C@@](C)(C5CC[C@](O)(CC)[C@H](C)O5)O4)O3)[C@H](C)C[C@@H]2C)O1; Sar = CNCC(=O)O

What was measured:
[1] = target: Vascular endothelial growth factor receptor 2 (Homo sapiens) (UniProt P35968); experiment: Inhibition of VEGFR2 phosphorylation in human SK-OV-3 cells at 5 uM incubated for 24 hrs by Western blot analysis; type: cell-based
SK-OV-3 [2] = experiment: Inhibition of AKT phosphorylation in human SK-OV-3 cells at 5 uM incubated for 24 hrs by Western blot analysis; type: cell-based
A2780 [3] = experiment: Antitumor activity against CD44 negative human A2780 cells co-cultured with CD44 positive human SK-OV-3 cells in DMEM medium at varying ratio assessed as inhibition of cell growth at 20 uM incubated for 72 hrs by enzymatic immunoassay relative to control; type: functional
SK-OV-3/CDDP [4] = experiment: Cytotoxicity against human SK-OV-3/CDDP cells assessed as inhibition of cell proliferation incubated for 72 hrs by CCK8 assay; type: functional, cell-based
SK-OV-3 [5] = experiment: Downregulation of CD133 expression in human SK-OV-3 tumor stem cells at 10 uM incubated for 36 hrs by flow cytometric analysis; type: functional, cell-based
A2780 [6] = experiment: Binding affinity to CD44 negative human A2780 cells at 5 uM incubated for 1 hrs by flow cytometric analysis; type: functional, cell-based
SK-OV-3/CDDP [7] = experiment: Induction of ROS generation in human SK-OV-3/CDDP cells at 5 uM; type: functional, cell-based
A2780 [8] = experiment: Antitumor activity against CD44 negative human A2780 cells co-cultured with CD44 positive human SK-OV-3 cells in DMEM medium at 6:4 ratio assessed as induction of cell death incubated for 72 hrs by enzymatic immunoassay; type: functional, cell-based; settings: dose 2.5-20 µM
SK-OV-3 [9] = experiment: Inhibition of cell invasion in human SK-OV-3 cells incubated for 24 hrs by crystal violet staining based transwell invasion assay; type: functional; settings: dose 5.0 µM
A2780 [10] = experiment: Antitumor activity against CD44 negative human A2780 cells expressing GFP co-cultured with CD44 positive human SK-OV-3 cells in DMEM medium at 5:5 ratio assessed as decrease in fluorescence intensity incubated for 72 hrs by enzymatic immunoassay; type: functional, cell-based; settings: dose 2.5-20 µM
A2780 [11] = experiment: Antitumor activity against CD44 negative human A2780 cells co-cultured with CD44 positive human SK-OV-3 cells in DMEM medium at 5:5 ratio assessed as induction of cell death incubated for 72 hrs by enzymatic immunoassay; type: functional, cell-based; settings: dose 2.5-20 µM
SK-OV-3 [12] = experiment: Antitumor activity against human SK-OV-3 cells xenografted in nude mouse assessed as reduction in Nanog level administered intravenously every 2 days for 21 days by hematoxylin based immunohistochemistry analysis; type: functional, cell-based; settings: route iv, time 21.0 day
SK-OV-3 [13] = experiment: Antitumor activity against human SK-OV-3 cells xenografted in nude mouse assessed as reduction in oct-4 level administered intravenously every 2 days for 21 days by hematoxylin based immunohistochemistry analysis; type: functional, cell-based; settings: route iv, time 21.0 day
SK-OV-3 [14] = experiment: Inhibition of tumor sphere formation in agarose-treated human SK-OV-3 cells assessed as fold decrease in number of formed spheres at 0.5 to 5 uM incubated for 9 days by imaging analysis; type: functional; settings: dose 0.5-5 µM; time 9 day
[15] = target: CD44 antigen (Homo sapiens) (UniProt P16070); experiment: Binding affinity to CD44 positive human SK-OV-3 cells at 5 uM incubated for 1 hrs by flow cytometric analysis; type: cell-based
A2780 [16] = experiment: Antitumor activity against CD44 negative human A2780 cells expressing GFP co-cultured with CD44 positive human SK-OV-3 cells in DMEM medium at 4:6 ratio assessed as decrease in fluorescence intensity incubated for 72 hrs by enzymatic immunoassay; type: functional, cell-based; settings: dose 2.5-20 µM
A2780 [17] = experiment: Antitumor activity against CD44 negative human A2780 cells co-cultured with CD44 positive human SK-OV-3 cells in DMEM medium at 4:6 ratio assessed as induction of cell death incubated for 72 hrs by enzymatic immunoassay; type: functional, cell-based; settings: dose 2.5-20 µM
SK-OV-3 [18] = experiment: Antitumor activity against human SK-OV-3 cells xenografted in nude mouse assessed as tumor growth inhibition at 35 microg/kg, iv administered every 2 days for 21 days; type: functional, organism-based; settings: dose 35.0 µg/kg, time 21.0 day
A2780 [19] = experiment: Antitumor activity against CD44 negative human A2780 cells expressing GFP co-cultured with CD44 positive human SK-OV-3 cells in DMEM medium at 6:4 ratio assessed as decrease in fluorescence intensity incubated for 72 hrs by enzymatic immunoassay; type: functional, cell-based; settings: dose 2.5-20 µM
[20] = Solubility of compound in water; type: physicochemical; settings: buffer
SK-OV-3 [21] = experiment: Antitumor activity against CD44 positive human SK-OV-3 cells assessed as reduction in cell viability incubated for 72 hrs by CCK8 assay; type: functional, cell-based; settings: SK-OV-3, 72 h
SK-OV-3/CDDP [22] = experiment: Sensitization of cisplatin-induced antiproliferative activity against human SK-OV-3/CDDP cells assessed as reduction in cell viability at 1 uM incubated for 72 hrs by CCK8 assay; type: functional, cell-based
A2780 [23] = experiment: Antitumor activity against CD44 negative human A2780 cells assessed as reduction in cell viability incubated for 72 hrs by CCK8 assay; type: functional, cell-based; settings: A2780, 72 h
SK-OV-3 [24] = experiment: Inhibition of cell migration in human SK-OV-3 cells at 5 uM incubated for 24 hrs by microscope based wound healing assay; type: functional
SK-OV-3 [25] = experiment: Effect on CD44 expression in CD44 positive human SK-OV-3 cells; type: functional, cell-based
SK-OV-3/CDDP [26] = experiment: Reduction in intracellular GSH level in human SK-OV-3 cells at 5 uM incubated for 36 hrs; type: functional, cell-based
SK-OV-3 [27] = experiment: Cytotoxicity against CD44 positive human SK-OV-3 cells assessed as reduction in cell viability at 100 uM preincubated with 10 and 100 uM of 4S)-4-[[(2S)-1-[(2S)-1-[(2S)-2-[[(2S)-2-[[(2S)-1-[(2S)-2-acetamido-6-amino-hexanoyl]pyrrolidine-2-carbonyl]amino]-3-hydroxy-propanoyl]amino]-3-hydroxy-propanoyl]pyrrolidine-2-carbonyl]pyrrolidine-2-carbonyl]amino]-5-[[(1S)-1-[[2-[[2-[[2-[[2-[[2-[[2-[[2-[[2-[[2-[[2-[[(1S)-2-amino-1-methyl-2-oxo-ethyl]amino]-2-oxo-ethyl]-methyl-amino]-2-oxo-ethyl]-methyl-amino]-2-oxo-ethyl]-methyl-amino]-2-oxo-ethyl]-methyl-amino]-2-oxo-ethyl]-methyl-amino]-2-oxo-ethyl]-methyl-amino]-2-oxo-ethyl]-methyl-amino]-2-oxo-ethyl]-methyl-amino]-2-oxo-ethyl]-methyl-amino]-2-oxo-ethyl]-methyl-carbamoyl]-3-carboxy-propyl]amino]-5-oxo-pentanoic acid for 1 hrs followed by compound addition and measured after 24 hrs by CCK8 assay; type: functional, cell-based
SK-OV-3/CDDP [28] = experiment: Antiproliferative activity against human SK-OV-3/CDDP cells; type: functional, cell-based
SK-OV-3 [29] = experiment: Antiproliferative activity against human SK-OV-3 cells; type: functional, cell-based
DU-145 = experiment: Cytotoxicity against human DU-145 cells assessed as inhibition of cell growth incubated for 72 hrs by CCK8 assay; type: functional, cell-based; settings: DU-145, 72 h
MIA PaCa-2 = experiment: Cytotoxicity against human MIA PaCa-2 cells assessed as inhibition of cell growth incubated for 72 hrs by CCK8 assay; type: functional, cell-based; settings: MIA PaCa-2, 72 h
MDA-MB-231 = experiment: Cytotoxicity against human MDA-MB-231 cells assessed as inhibition of cell growth incubated for 72 hrs by CCK8 assay; type: functional, cell-based; settings: MDA-MB-231, 72 h
A549 = experiment: Cytotoxicity against human A549 cells assessed as inhibition of cell growth incubated for 72 hrs by CCK8 assay; type: functional, cell-based; settings: A549, 72 h
SK-OV-3 [30] = experiment: Inhibition of cell invasion in human SK-OV-3 cells at 5 uM incubated for 24 hrs by crystal violet staining based transwell invasion assay; type: functional
HCCLM3 = experiment: Cytotoxicity against human HCCLM3 cells assessed as inhibition of cell growth incubated for 72 hrs by CCK8 assay; type: functional, cell-based; settings: HCCLM3, 72 h
ACHN = experiment: Cytotoxicity against human ACHN cells assessed as inhibition of cell growth incubated for 72 hrs by CCK8 assay; type: functional, cell-based
CAL-27 = experiment: Cytotoxicity against human CAL-27 cells assessed as inhibition of cell growth incubated for 72 hrs by CCK8 assay; type: functional, cell-based; settings: CAL-27, 72 h
A-431 = experiment: Cytotoxicity against human A-431 cells assessed as inhibition of cell growth incubated for 72 hrs by CCK8 assay; type: functional, cell-based; settings: A-431, 72 h
SK-OV-3 [31] = experiment: Inhibition of cell migration in human SK-OV-3 cells at 10 uM incubated for 24 hrs by microscope based wound healing assay; type: functional
HeLa = experiment: Cytotoxicity against human HeLa cells assessed as inhibition of cell growth incubated for 72 hrs by CCK8 assay; type: functional, cell-based
MKN-45 = experiment: Cytotoxicity against human MKN-45 cells assessed as inhibition of cell growth incubated for 72 hrs by CCK8 assay; type: functional, cell-based; settings: MKN-45, 72 h
MCF7 = experiment: Cytotoxicity against human MCF7 cells assessed as inhibition of cell growth incubated for 72 hrs by CCK8 assay; type: functional, cell-based; settings: MCF7, 72 h

Sequence of Vascular endothelial growth factor receptor 2 (Homo sapiens) (P35968 whole entry): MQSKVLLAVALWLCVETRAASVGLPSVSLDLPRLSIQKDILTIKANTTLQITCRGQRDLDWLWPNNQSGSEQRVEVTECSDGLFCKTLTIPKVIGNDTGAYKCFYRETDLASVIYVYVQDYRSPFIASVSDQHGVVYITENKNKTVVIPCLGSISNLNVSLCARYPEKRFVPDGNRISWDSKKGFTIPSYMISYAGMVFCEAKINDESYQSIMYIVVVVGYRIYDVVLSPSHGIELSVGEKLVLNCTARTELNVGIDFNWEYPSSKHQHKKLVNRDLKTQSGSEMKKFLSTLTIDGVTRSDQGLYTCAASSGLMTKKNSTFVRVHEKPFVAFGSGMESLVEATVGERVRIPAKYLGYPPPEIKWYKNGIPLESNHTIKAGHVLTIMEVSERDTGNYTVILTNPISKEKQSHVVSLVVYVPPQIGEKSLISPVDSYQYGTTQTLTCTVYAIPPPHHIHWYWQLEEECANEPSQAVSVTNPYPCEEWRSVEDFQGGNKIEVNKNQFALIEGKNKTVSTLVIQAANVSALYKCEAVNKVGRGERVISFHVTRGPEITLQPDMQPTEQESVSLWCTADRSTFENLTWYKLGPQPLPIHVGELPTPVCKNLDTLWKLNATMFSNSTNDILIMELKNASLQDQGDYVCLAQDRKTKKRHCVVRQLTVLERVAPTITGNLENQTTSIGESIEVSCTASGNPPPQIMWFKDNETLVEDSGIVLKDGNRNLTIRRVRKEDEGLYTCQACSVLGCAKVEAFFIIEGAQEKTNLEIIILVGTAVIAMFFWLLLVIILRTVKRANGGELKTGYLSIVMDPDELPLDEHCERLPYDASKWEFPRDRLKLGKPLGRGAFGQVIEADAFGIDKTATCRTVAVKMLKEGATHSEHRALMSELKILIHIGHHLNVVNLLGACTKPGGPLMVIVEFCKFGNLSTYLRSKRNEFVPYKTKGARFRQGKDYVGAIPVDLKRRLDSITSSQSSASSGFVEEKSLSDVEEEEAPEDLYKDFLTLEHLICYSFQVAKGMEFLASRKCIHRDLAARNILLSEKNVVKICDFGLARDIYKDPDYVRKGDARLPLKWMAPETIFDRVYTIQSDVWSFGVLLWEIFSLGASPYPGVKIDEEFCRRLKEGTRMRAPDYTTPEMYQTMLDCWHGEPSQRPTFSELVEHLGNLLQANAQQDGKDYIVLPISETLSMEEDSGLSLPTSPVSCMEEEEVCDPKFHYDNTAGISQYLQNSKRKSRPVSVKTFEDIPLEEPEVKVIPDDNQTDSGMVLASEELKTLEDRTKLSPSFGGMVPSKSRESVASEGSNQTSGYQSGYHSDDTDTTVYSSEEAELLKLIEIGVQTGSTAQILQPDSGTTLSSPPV
Sequence of CD44 antigen (Homo sapiens) (P16070 whole entry): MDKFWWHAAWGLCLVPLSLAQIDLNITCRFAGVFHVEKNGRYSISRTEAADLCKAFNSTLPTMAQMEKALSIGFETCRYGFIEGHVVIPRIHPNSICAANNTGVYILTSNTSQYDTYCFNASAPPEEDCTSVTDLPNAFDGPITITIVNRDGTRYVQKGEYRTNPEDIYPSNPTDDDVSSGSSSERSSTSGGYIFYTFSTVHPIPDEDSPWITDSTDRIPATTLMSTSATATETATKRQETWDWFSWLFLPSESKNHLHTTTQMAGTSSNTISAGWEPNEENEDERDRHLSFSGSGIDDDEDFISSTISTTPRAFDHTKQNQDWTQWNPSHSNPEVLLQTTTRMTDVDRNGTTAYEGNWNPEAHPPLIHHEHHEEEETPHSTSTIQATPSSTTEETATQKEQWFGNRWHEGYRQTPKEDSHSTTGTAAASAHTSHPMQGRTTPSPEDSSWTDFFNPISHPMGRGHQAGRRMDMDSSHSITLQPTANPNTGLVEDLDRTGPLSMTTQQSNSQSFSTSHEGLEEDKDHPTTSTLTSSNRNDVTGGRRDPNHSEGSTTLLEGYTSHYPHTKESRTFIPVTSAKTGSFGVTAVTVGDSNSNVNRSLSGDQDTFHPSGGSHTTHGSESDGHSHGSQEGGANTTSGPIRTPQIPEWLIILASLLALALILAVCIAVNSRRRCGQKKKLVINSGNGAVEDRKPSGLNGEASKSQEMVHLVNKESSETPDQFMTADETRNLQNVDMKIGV

Structure (SMILES): CC(=O)N[C@@H](CCCCN)C(=O)N1CCC[C@H]1C(=O)N[C@@H](CO)C(=O)N[C@@H](CO)C(=O)N1CCC[C@H]1C(=O)N1CCC[C@H]1C(=O)N[C@@H](CCC(=O)O)C(=O)N[C@@H](CCC(=O)O)C(=O)N(C)CC(=O)N(C)CC(=O)N(C)CC(=O)N(C)CC(=O)N(C)CC(=O)N(C)CC(=O)N(C)CC(=O)N(C)CC(=O)N(C)CC(=O)N(C)CC(=O)N[C@@H](C)C(N)=O (Ac-KPSSPPEE[Sar][Sar][Sar][Sar][Sar][Sar][Sar][Sar][Sar][Sar]A-NH2)
- inhibition [1]: Active
- inhibition (SK-OV-3 [2]): Active

Structure (SMILES): CC[C@@H](C(=O)[O-])C1CC[C@H](C)C([C@@H](C)[C@H](O)[C@H](C)C(=O)[C@H](CC)C2O[C@]3(C=C[C@@H](NC(=O)CCSSC[C@H](NC(=O)CN(C)C(=O)CN(C)C(=O)CN(C)C(=O)CN(C)C(=O)CN(C)C(=O)CN(C)C(=O)CN(C)C(=O)CN(C)C(=O)CN(C)C(=O)CN(C)C(=O)[C@H](CCC(=O)O)NC(=O)[C@H](CCC(=O)O)NC(=O)[C@@H]4CCCN4C(=O)[C@@H]4CCCN4C(=O)[C@H](CO)NC(=O)[C@H](CO)NC(=O)[C@@H]4CCCN4C(=O)[C@H](CCCCN)NC(C)=O)C(N)=O)[C@]4(CC[C@@](C)(C5CC[C@](O)(CC)[C@H](C)O5)O4)O3)[C@H](C)C[C@@H]2C)O1.[Na+] (stereo partly drawn) (Ac-KPSSPPEE[Sar][Sar][Sar][Sar][Sar][Sar][Sar][Sar][Sar][Sar]C(X1)-NH2)
- inhibition at 20 µM (A2780 [3]): > 80%
- IC50 (SK-OV-3/CDDP [4]): 6.09 µM
- Activity (SK-OV-3 [5]): Active
- Activity (A2780 [6]): inactive
- Activity (SK-OV-3/CDDP [7]): Active
- Activity (A2780 [8]): Dose-Dependent Effect
- inhibition (SK-OV-3 [9]): Dose-Dependent Effect
- Activity (A2780 [10]): Dose-Dependent Effect
- Activity (A2780 [11]): Dose-Dependent Effect
- Activity (SK-OV-3 [12]): Active
- Activity (SK-OV-3 [13]): Active
- fold change (FC) (SK-OV-3 [14]): 4.6
- Activity [15]: Active
- Activity (A2780 [16]): Dose-Dependent Effect
- Activity (A2780 [17]): Dose-Dependent Effect
- Activity (SK-OV-3 [18]): Active
- inhibition [1]: Active
- inhibition (SK-OV-3 [2]): Active
- Activity (A2780 [19]): Dose-Dependent Effect
- solubility [20]: Soluble
- IC50 (SK-OV-3 [21]): 5.45 µM
- Activity (SK-OV-3/CDDP [22]): Active
- IC50 (A2780 [23]): 47.1 µM
- inhibition (SK-OV-3 [24]): Active
- Activity (SK-OV-3 [25]): inactive
- Activity (SK-OV-3/CDDP [26]): Active
- Activity (SK-OV-3 [27]): inactive
- IC50 (SK-OV-3/CDDP [28]): 18.7 µg/mL
- IC50 (SK-OV-3 [29]): 5.21 µg/mL

Structure (SMILES): CC[C@@H](C(=O)[C@@H](C)[C@@H](O)[C@H](C)[C@@H]1O[C@@H]([C@@H](CC)C(=O)O)CC[C@@H]1C)[C@H]1O[C@]2(C=C[C@@H](O)[C@]3(CC[C@@](C)([C@H]4CC[C@](O)(CC)[C@H](C)O4)O3)O2)[C@H](C)C[C@@H]1C [SALINOMYCIN]
- IC50 (SK-OV-3/CDDP [4]): 10.3 µM
- Activity (SK-OV-3 [5]): Active
- IC50 (DU-145): 47.1 µM
- IC50 (MIA PaCa-2): 5.03 µM
- IC50 (MDA-MB-231): 0.9 µM
- IC50 (A549): 25.1 µM
- inhibition (SK-OV-3 [30]): Active
- IC50 (HCCLM3): 7.99 µM
- IC50 (ACHN): 26 µM
- IC50 (CAL-27): 30.2 µM
- inhibition [1]: Active
- inhibition (SK-OV-3 [2]): Active
- IC50 (A-431): 5.27 µM
- IC50 (SK-OV-3 [21]): 12.4 µM
- Activity (SK-OV-3/CDDP [22]): Active
- IC50 (A2780 [23]): 0.16 µM
- inhibition (SK-OV-3 [31]): Active
- inhibition (SK-OV-3 [24]): inactive
- Activity (SK-OV-3 [25]): inactive
- IC50 (HeLa): 25 µM
- IC50 (MKN-45): 6.49 µM
- IC50 (MCF7): 9.89 µM
